From ChEMBL document CHEMBL1201862, “PubChem BioAssay data set” (2004)
Activity calls are given as the source filed them.

Legend:
Cytochrome P450 3A4 = Cytochrome P450 3A4 (Homo sapiens, UniProt P08684); details: Potency;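 also: confirmatory qHTS run detecting inhibitors and substrates of CYP3A4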
[1] = target: T1, Endoribonuclease toxin MazF (Escherichia coli K-12, UniProt P0AE70); experiment: MazF toxin RNase activators, dose response, biochemical, fluorescence, single-stranded RNA substrate, uHTS hits (AID 588481); type: functional
T1 sequence (P0AE70 whole entry): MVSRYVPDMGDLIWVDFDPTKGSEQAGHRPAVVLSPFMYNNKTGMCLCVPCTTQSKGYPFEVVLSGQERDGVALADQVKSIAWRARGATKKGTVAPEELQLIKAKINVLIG

[2] = target: T1, Endoribonuclease toxin MazF; experiment: fluorescent RNA oligo signal without MazF, dose response, counter-screen for MazEF activator project, biochemical, fluorescence, single-stranded RNase substrate (AID 588502); type: functional
Prothrombin = Prothrombin (Bos taurus, UniProt P00735); experiment: thrombin inhibition, dose response, biochemical, fluorescence polarization, uHTS hits (AID 602369); type: functional
[3] = target: 26S proteasome non-ATPase regulatory subunit 14 (Homo sapiens, UniProt O00487); experiment: inhibition of proteasome subunit RPN11 – biochemical, fluorescence polarization, uHTS hits, confirmation (AID 602368); type: functional
Chain of 26S proteasome non-ATPase regulatory subunit 14 (O00487 whole entry): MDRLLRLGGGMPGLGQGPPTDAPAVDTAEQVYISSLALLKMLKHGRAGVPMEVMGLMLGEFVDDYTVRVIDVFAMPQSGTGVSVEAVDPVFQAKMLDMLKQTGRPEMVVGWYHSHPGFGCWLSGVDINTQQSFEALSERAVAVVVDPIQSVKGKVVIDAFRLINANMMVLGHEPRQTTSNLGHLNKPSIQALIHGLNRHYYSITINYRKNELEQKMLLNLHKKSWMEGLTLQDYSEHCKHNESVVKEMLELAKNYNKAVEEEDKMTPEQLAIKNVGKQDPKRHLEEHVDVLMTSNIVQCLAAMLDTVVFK

[4] = target: 72 kDa type IV collagenase (Homo sapiens, UniProt P08253); experiment: Dose Response validation of uHTS RPN11 inhibitor hits using a MMP-2 Fluorescence assay.; type: functional
Chain of 72 kDa type IV collagenase (P08253 whole entry): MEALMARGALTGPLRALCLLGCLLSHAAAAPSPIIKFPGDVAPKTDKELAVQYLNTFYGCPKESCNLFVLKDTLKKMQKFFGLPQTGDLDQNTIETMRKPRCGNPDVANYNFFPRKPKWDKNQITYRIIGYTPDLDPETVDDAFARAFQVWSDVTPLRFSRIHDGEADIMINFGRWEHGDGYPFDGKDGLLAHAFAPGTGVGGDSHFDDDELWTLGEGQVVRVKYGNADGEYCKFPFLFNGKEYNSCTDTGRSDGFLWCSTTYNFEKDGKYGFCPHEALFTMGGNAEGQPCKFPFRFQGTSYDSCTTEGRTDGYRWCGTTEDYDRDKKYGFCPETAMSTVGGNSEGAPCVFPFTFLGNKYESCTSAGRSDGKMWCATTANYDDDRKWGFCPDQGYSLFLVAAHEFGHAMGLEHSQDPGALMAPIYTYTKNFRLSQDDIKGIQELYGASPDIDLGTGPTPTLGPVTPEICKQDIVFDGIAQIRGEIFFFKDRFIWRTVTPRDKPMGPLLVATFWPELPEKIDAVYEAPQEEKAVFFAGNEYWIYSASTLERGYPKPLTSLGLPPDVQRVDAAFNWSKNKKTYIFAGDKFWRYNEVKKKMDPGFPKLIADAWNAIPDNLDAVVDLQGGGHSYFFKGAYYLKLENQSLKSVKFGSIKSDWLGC

Vero = Vero cell cytotoxicity, cytotoxicity control for flavivirus capping enzyme inhibitors (AID 588742); type: functional; details: Chlorocebus sabaeus
Genome polyprotein = Genome polyprotein (dengue virus type 2, UniProt P29990); experiment: Dengue-2 NS5 methyltransferase inhibitors, primary screen, biochemical, confirmation dose response (AID 588689); type: functional
Chain of Genome polyprotein (P29990 2492-3391 limits assumed): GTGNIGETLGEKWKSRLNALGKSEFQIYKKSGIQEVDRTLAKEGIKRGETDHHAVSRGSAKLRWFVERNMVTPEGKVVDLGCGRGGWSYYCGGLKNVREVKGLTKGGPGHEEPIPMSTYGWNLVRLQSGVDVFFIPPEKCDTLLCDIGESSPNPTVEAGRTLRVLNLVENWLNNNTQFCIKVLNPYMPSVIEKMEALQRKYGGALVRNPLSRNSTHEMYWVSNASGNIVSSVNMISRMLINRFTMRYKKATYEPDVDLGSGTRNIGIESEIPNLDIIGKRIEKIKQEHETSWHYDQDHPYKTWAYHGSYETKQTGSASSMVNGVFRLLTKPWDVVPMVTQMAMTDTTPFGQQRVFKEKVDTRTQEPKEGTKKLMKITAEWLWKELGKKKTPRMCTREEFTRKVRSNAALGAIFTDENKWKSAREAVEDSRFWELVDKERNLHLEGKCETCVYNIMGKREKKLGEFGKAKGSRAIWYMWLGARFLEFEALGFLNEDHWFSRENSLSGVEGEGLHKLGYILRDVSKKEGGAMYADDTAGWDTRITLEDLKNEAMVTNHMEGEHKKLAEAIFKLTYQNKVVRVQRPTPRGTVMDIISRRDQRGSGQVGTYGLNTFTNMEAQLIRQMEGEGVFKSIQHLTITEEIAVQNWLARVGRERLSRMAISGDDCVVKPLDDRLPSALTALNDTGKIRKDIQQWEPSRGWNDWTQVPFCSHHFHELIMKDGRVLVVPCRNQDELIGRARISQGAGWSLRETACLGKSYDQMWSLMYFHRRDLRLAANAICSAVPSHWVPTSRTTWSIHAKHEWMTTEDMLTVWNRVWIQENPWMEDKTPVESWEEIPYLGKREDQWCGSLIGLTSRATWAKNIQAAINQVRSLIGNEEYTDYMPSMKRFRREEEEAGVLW

[5] = target: T2, Corticotropin-releasing factor receptor 2/Corticotropin-releasing factor-binding protein (Homo sapiens, UniProt P24387+Q13324); experiment: activators of CRF receptor 2 with binding protein – uHTS hits, confirmation (AID 602473); type: functional; details: read-out: EC50_Mean
T2 sequence (Q13324 whole entry): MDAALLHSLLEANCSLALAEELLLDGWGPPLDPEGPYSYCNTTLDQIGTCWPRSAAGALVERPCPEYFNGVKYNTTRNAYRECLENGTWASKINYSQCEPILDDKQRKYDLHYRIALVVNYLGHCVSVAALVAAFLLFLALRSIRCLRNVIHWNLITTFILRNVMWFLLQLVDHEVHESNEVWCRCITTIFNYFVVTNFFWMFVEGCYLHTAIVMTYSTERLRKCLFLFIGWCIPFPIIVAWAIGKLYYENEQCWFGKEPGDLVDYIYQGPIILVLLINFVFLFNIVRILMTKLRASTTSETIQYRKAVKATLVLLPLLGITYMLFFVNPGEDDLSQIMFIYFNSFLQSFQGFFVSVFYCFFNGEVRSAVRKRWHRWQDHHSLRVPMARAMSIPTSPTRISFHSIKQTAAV
T2 sequence (P24387 whole entry): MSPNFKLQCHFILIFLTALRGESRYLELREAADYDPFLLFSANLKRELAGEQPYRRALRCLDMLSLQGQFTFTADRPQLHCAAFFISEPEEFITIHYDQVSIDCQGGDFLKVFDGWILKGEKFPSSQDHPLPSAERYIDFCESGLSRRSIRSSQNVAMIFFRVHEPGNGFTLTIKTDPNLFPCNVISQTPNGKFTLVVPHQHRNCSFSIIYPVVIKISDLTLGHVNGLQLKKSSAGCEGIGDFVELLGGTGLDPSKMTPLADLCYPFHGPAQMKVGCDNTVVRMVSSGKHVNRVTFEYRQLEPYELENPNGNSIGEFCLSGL

[6] = inhibitors of intracellular T. cruzi replication, confirmation, NIH3T3 host cells, beta-gal luminescence (AID 2044); type: functional, cell-based;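 also: intracellular parasites grown in NIH/3T3 mouse fibroblasts as host cells; luminescent beta-galactosidase reporter signal from transgenic T. cruzi replicating inside host cells; inhibitors lower the luminescence signal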
[7] = cytotoxicity toward NIH3T3 fibroblasts, dose response, counter-screen, cell-based, ATP luminescence, mouse fibroblasts (AID 2010); type: functional;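 also: cells exposed to compound for about 90 hours before reading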
cells = type: functional
[8] = Vero E6 cell cytotoxicity, dose response, cytotoxicity control for non-replicating M. tuberculosis project, secondary assay (AID 492998); type: functional, VeroE6; details: Vero C1008
[9] = THP-1 cell cytotoxicity, dose response, cytotoxicity control for non-replicating M. tuberculosis project (AID 489025); type: functional
[10] = target: T3, Apoptotic protease-activating factor 1 (Homo sapiens, UniProt O14727); type: functional
T3 sequence (O14727 whole entry): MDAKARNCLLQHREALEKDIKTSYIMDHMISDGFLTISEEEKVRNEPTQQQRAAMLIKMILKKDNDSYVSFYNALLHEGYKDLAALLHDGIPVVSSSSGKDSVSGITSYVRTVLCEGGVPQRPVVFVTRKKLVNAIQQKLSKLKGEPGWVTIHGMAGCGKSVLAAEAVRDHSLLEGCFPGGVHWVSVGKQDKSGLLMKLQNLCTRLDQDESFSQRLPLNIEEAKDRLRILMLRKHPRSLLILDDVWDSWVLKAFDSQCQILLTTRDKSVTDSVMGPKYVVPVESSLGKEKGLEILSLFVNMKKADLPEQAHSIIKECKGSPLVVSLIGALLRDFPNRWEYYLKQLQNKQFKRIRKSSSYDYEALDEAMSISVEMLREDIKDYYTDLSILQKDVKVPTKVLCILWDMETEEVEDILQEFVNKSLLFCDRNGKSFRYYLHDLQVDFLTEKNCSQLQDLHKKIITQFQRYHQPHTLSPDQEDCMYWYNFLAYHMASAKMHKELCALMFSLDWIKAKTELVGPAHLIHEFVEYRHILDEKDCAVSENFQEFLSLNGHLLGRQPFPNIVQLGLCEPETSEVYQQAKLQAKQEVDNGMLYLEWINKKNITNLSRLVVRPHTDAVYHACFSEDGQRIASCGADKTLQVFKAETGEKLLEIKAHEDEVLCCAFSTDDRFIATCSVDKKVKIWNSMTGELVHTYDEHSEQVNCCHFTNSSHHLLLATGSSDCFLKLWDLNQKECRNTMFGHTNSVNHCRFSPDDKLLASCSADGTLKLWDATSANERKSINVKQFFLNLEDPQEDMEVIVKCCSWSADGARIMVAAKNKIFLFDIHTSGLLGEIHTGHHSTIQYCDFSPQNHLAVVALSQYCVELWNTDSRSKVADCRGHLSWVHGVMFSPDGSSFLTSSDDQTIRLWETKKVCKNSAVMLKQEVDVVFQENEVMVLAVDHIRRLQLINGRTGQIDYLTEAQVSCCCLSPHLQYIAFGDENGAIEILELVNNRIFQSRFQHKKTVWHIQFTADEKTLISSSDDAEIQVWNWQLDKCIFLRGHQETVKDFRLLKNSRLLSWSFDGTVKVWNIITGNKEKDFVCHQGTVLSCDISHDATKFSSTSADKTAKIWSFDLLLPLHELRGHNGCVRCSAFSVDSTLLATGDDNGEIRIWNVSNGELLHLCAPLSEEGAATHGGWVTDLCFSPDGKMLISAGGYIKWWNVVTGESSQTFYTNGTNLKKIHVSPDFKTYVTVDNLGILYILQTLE

[11] = target: Dual specificity tyrosine-phosphorylation-regulated kinase 1A (Rattus norvegicus, UniProt Q63470); type: biochemical, Homo sapiens
H4 = experiment: Luminescence Cell-Based Dose Response HTS to Identify Activators of 5'UTR Stem-Loop Driven Prion Protein mRNA Translation in H4 Neuroglioblastoma Cells. [Related pubchem assays: 1829 (Project Summary), 1814 (Primary HTS)]; type: functional; details: Homo sapiens
[12] = Luminescence Cell-Based Dose Confirmation HTS to Identify Activators of 5'UTR Stem-Loop Driven Alpha-Synuclein mRNA Translation in H4 Neuroglioblastoma Cells. [Related pubchem assays: 1829 (Project Summary), 1814 (Primary HTS)]; type: functional
[13] = Luminescence Cell-Based Dose Response HTS to Identify Activators of Luciferase Translation or Activity in H4 […] Cells. [Related pubchem assays: 1829 (Project Summary), 1814 (Primary HTS)]; type: functional
[14] = NIH-3T3 fibroblast cytotoxicity, dose response, cytotoxicity control, cell-based, fluorescence, Alamar Blue, secondary assay (AID 2327); type: functional;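 also: NIH-3T3 mouse fibroblasts cultured with fluconazole at 8 µg/mL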
[15] = C. albicans growth with fluconazole, confirmation, fluorescence, retest (AID 2467); type: functional, cell-based
Aminopeptidase N = target: T4, Aminopeptidase N (Plasmodium falciparum FcB1/Columbia, UniProt O96935); experiment: P. falciparum M1AAP inhibitors, biochemical, fluorogenic H-Leu-NHMec substrate, 1536-well (AID 1445); parameters: species or system Plasmodium falciparum 3D7, 3D7
T4 sequence (O96935 whole entry): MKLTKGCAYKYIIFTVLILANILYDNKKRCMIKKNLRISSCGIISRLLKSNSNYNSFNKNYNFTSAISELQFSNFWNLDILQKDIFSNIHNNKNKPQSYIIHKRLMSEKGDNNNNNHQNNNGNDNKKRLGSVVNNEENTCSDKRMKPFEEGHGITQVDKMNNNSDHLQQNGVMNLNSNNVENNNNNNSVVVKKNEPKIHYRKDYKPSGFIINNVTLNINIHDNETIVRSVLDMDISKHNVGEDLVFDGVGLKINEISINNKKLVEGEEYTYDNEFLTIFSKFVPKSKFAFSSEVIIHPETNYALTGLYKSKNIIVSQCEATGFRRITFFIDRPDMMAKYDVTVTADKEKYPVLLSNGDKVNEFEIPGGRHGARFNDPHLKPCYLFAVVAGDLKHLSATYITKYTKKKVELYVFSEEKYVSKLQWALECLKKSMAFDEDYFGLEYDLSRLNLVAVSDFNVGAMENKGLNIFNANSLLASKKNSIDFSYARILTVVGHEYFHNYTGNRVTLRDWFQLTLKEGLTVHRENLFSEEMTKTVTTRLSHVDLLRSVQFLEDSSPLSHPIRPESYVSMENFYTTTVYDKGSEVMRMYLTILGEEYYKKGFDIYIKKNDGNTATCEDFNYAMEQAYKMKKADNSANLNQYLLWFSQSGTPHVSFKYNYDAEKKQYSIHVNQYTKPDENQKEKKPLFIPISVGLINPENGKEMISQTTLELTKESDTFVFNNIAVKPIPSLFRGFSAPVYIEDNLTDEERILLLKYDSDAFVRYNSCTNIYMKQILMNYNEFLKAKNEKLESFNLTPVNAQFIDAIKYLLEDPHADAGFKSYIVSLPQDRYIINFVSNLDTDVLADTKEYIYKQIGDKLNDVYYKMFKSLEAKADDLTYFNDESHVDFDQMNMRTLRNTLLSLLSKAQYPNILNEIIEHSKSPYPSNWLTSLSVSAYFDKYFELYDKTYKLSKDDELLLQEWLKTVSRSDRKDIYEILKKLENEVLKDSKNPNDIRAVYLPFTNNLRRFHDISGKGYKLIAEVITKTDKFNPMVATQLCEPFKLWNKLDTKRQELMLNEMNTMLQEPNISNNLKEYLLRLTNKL

[16] = A cytotoxicity screen of small molecule inhibitors of the PhoP region in Salmonella typhi identified in the primary screen. [Related pubchem assays: 1850, 1864, 1985 ]; type: functional

Chain of Cytochrome P450 3A4 (P08684 whole entry): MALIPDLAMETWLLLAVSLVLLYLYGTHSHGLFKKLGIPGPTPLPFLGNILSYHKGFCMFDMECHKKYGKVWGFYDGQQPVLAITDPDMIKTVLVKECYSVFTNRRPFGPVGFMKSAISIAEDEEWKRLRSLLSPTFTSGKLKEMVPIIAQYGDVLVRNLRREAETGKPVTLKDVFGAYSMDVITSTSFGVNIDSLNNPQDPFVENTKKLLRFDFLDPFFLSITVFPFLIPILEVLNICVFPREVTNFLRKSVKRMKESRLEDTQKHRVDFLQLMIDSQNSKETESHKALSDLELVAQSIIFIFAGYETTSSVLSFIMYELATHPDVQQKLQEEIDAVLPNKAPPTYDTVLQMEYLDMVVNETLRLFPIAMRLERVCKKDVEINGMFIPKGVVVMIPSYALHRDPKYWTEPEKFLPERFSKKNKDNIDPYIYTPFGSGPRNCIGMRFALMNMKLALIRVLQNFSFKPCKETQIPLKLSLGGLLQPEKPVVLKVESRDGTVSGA

## CCNC(=S)NCC
Cytochrome P450 3A4
  AC50: 6.31 µM (inconclusive)

## COc1ccc2c(C)cc(SCC(=O)Nc3cc(C(N)=O)cc(C(N)=O)c3)nc2c1
[1]
  EC50: > 99 µM (inactive)
[2]
  EC50: > 99 µM (inactive)

## CCc1nc2oc3ccccc3c(=O)c2c(=O)n1-c1ccc(C)cc1
Prothrombin
  IC50: 87.5 µM (active)
[3]
  IC50: 24.5 µM (active)
[4]
  IC50: > 100 µM (inactive)

## Cc1ccc(S(=O)(=O)N2[C@@H](c3ccc(Br)cc3)C(C(=O)O)=CC[C@H]2c2ccc(C(C)C)cc2)cc1
Vero
  CC50: > 40 µM (active)
Genome polyprotein
  IC50: 32.9 µM (active)

## COc1ccc(/C=N/Nc2ccc([N+](=O)[O-])cc2S(=O)(=O)N2CCN(C)CC2)cc1
[1]
  EC50: > 99 µM (inactive)
[2]
  EC50: 8.43 µM (active)
[5]
  EC50: 6.27 µM (active)

## Cc1cc(Br)c(Cl)cc1NC(=O)CN1C(=O)C2C3CC(c4ccccc4)C(C3)C2C1=O (stereo not given)
[6]
  EC50: 2.59 µM (active)
Vero
  CC50: > 40 µM (active)
[7]
  EC50: 7.41 µM (active)

## COc1ccc(OC)c(NC(=O)C(=O)NNC(=O)C23CC4CC(CC(C4)C2)C3)c1
cells
  IC50: 8.62 µM (active)
[8]
  CC50: > 20 µM (active)
[9]
  CC50: > 40 µM (active)

## COc1cc(C/C=C/c2ccccc2)c(OC)cc1O [VIOLASTYRENE]
Cytochrome P450 3A4
  AC50: 39.8 µM (inconclusive)

## COc1ccc(-c2nc3nc(C)c(Cc4ccccc4)c(O)n3n2)cc1
[10]
  IC50: 30.6 µM (active)

## COc1ccc(/C=C2\SC(N3CCCCC3)=NC2=O)cc1
[11]
  AC50: 0.308 µM (active)

## CCOC(=O)OCC1OC(C#Cc2ccc(C)cc2C)C=CC1OC(=O)OCC (stereo not given)
Cytochrome P450 3A4
  AC50: 3.98 µM (inconclusive)

## CCOc1ccc2nc(NC(=O)Cn3[nH]c(=O)c4ccccc4c3=O)sc2c1
Prothrombin
  IC50: 90.4 µM (active)
H4
  EC50: 54.3 µM (active)
[3]
  IC50: 39.7 µM (active)
[12]
  EC50: > 120 µM (not active)
[4]
  IC50: > 100 µM (inactive)
[13]
  EC50: 5.14 µM (active)

## O=C(Nc1ncc([N+](=O)[O-])s1)c1cccs1
[8]
  CC50: > 20 µM (active)
[14]
  EC50: > 150 µM (inactive)
[9]
  CC50: 34.3 µM (active)
[15]
  EC50: 0.069 µM (active)

## CCCCCCC#CC1C=CC(Oc2ccc(C=O)cc2)C(CO)O1 (stereo not given)
Cytochrome P450 3A4
  AC50: 3.98 µM (inconclusive)

## Cc1cc(C(=O)NN=C(S)NCc2ccco2)nn1C
Aminopeptidase N
  IC50: 57.7 µM (active)

## O=C(NCCN1CCOCC1)c1cc2c(=O)n3ccccc3nc2n1Cc1ccccc1
Aminopeptidase N
  IC50: 102 µM (active)

## N#Cc1ccc(-c2ccc(OCC(=O)NCCCN3CCCC3=O)cc2)cc1
[16]
  EC50: > 50 µM (active)

## CN(C)c1oc(/C=C/c2ccccc2)nc1C#N
Aminopeptidase N
  IC50: 23.9 µM (active)

## Cc1ccccc1NC(=O)C1c2cccc[n+]2CC(=O)N1c1c(C)cccc1C (stereo not given)
[1]
  EC50: > 99 µM (inactive)
[2]
  EC50: > 99 µM (inactive)

## O=C(Nc1cccc([N+](=O)[O-])c1)Nc1ccc2c(c1)CCC2
[6]
  EC50: 3.27 µM (active)
[7]
  EC50: > 60 µM (not active)
[1]
  EC50: > 99 µM (inactive)
[2]
  EC50: > 99 µM (inactive)

## O=C(Nc1nonc1NC(=O)c1cccs1)c1cccs1
[16]
  EC50: > 50 µM (active)
[14]
  EC50: > 150 µM (inactive)
[15]
  EC50: 0.44 µM (active)
